From ChEMBL document CHEMBL6121019, “Design, synthesis and biological evaluation of bisnoralcohol derivatives as novel IRF4 inhibitors for the treatment of multiple myeloma” (Eur J Med Chem, 2025)

Experiments:
[1] = target: T1, Interferon regulatory factor 4 (Homo sapiens, UniProt Q15306); experiment: Inhibition of IRF4 (unknown origin) incubated for 1 hr by fluorescence polarization assay
T1 sequence (Q15306 whole entry): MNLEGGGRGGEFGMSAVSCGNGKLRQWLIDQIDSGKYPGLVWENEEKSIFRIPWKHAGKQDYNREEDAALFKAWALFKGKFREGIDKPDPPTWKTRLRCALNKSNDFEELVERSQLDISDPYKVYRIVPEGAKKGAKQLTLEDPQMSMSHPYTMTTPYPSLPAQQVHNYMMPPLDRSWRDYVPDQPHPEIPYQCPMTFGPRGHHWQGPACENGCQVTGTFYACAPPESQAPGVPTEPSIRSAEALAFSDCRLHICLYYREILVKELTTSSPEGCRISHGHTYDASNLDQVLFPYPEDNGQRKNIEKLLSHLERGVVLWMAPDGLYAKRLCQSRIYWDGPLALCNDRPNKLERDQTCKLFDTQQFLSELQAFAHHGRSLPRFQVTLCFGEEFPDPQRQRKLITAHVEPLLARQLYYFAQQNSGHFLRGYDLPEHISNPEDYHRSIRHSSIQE

[2] = tested on: NCI-H929; experiment: Antiproliferative activity against human NCI-H929 cells assessed as inhibition of cell viability measured after 72 hrs by MTS assay; format: functional, cell-based; conditions: NCI-H929, 72 h
[3] = Selectivity ratio IC50 for human RPMI-8226 cells to IC50 for human NCI-H929 cells; format: toxicity
[4] = tested on: RPMI-8226; experiment: Antiproliferative activity against human RPMI-8226 cells assessed as inhibition of cell viability measured after 72 hrs by MTS assay; format: functional, cell-based; conditions: RPMI-8226, 72 h
[5] = Antiproliferative activity against human MM1.R cells assessed as inhibition of cell viability measured after 72 hrs by MTS assay; format: functional, cell-based; conditions: MM.1R
[6] = Antiproliferative activity against human HaCaT cells assessed as inhibition of cell viability measured after 72 hrs by MTS assay; format: toxicity, cell-based
[7] = Antiproliferative activity against human HAF cells assessed as inhibition of cell viability measured after 72 hrs by MTS assay; format: toxicity, cell-based
[8] = Selectivity ratio IC50 for human RPMI-8226 cells to IC50 for human MM1.R cells; format: toxicity

IC50 [1] | SMILES | further results
8.1 µM | C[C@H](C(=O)Oc1ccccc1)[C@H]1CC[C@H]2[C@@H]3C(=O)C=C4C(C)(C)C(=O)C(C#N)=C[C@]4(C)[C@H]3CC[C@]12C | –
> 20 µM | C=CCNC(=O)[C@@H](C)[C@H]1CC[C@H]2[C@@H]3C(=O)C=C4C(C)(C)C(=O)C(C#N)=C[C@]4(C)[C@H]3CC[C@]12C | –
> 20 µM | C[C@H](CO)[C@H]1CC[C@H]2[C@@H]3CCC4=CC(=O)CC[C@]4(C)[C@H]3CC[C@]12C | –
> 20 µM | CCNC(=O)[C@@H](C)[C@H]1CC[C@H]2[C@@H]3C(=O)C=C4C(C)(C)C(=O)C(C#N)=C[C@]4(C)[C@H]3CC[C@]12C | –
5.05 µM | C[C@H](C(=O)Nc1cccnc1)[C@H]1CC[C@H]2[C@@H]3C(=O)C=C4C(C)(C)C(=O)C(C#N)=C[C@]4(C)[C@H]3CC[C@]12C | –
7.61 µM | C[C@H](C(=O)Nc1ncco1)[C@H]1CC[C@H]2[C@@H]3C(=O)C=C4C(C)(C)C(=O)C(C#N)=C[C@]4(C)[C@H]3CC[C@]12C | –
16.4 µM | CNC(=O)[C@@H](C)[C@H]1CC[C@H]2[C@@H]3C(=O)C=C4C(C)(C)C(=O)C(C#N)=C[C@]4(C)[C@H]3CC[C@]12C | –
> 20 µM | C[C@H](C(=O)Nc1ccc(Cl)cc1)[C@H]1CC[C@H]2[C@@H]3C(=O)C=C4C(C)(C)C(=O)C(C#N)=C[C@]4(C)[C@H]3CC[C@]12C | –
> 20 µM | C[C@H](C(=O)Oc1ccc(Cl)cc1)[C@H]1CC[C@H]2[C@@H]3C(=O)C=C4C(C)(C)C(=O)C(C#N)=C[C@]4(C)[C@H]3CC[C@]12C | –
15.1 µM | COc1ccc(NC(=O)C[C@@H](C)[C@H]2CC[C@H]3[C@@H]4C(=O)C=C5C(C)(C)C(=O)C(C#N)=C[C@]5(C)[C@H]4CC[C@]23C)cc1 | –
13.5 µM | C[C@H](C(=O)O)[C@H]1CC[C@H]2[C@@H]3C(=O)C=C4C(C)(C)C(=O)C(C#N)=C[C@]4(C)[C@H]3CC[C@]12C | IC50 [2]: 2.63 µM; Ratio IC50 [3]: 1.6; IC50 [4]: 4.25 µM; IC50 [5]: 3.16 µM; IC50 at 72 h [6]: > 100 µM; IC50 at 72 h [7]: > 100 µM; Ratio IC50 [8]: 1.2
11.6 µM | C[C@H](C(=O)Nc1ccc2cc[nH]c2c1)[C@H]1CC[C@H]2[C@@H]3C(=O)C=C4C(C)(C)C(=O)C(C#N)=C[C@]4(C)[C@H]3CC[C@]12C | –
3.65 µM | Cc1ccc(NC(=O)[C@@H](C)[C@H]2CC[C@H]3[C@@H]4C(=O)C=C5C(C)(C)C(=O)C(C#N)=C[C@]5(C)[C@H]4CC[C@]23C)cc1 | IC50 [2]: 0.22 µM; Ratio IC50 [3]: 1.2; IC50 [4]: 0.26 µM; IC50 [5]: 0.27 µM; IC50 at 72 h [6]: > 100 µM; IC50 at 72 h [7]: > 100 µM; Ratio IC50 [8]: 1
15 µM | C[C@H](C(=O)Nc1ccccc1O)[C@H]1CC[C@H]2[C@@H]3C(=O)C=C4C(C)(C)C(=O)C(C#N)=C[C@]4(C)[C@H]3CC[C@]12C | –
> 20 µM | C[C@H](CO)[C@H]1CC[C@H]2[C@@H]3C(=O)C=C4C(C)(C)C(=O)C(C#N)=C[C@]4(C)[C@H]3CC[C@]12C | –
9.65 µM | C[C@H](C(=O)Nc1cncnc1)[C@H]1CC[C@H]2[C@@H]3C(=O)C=C4C(C)(C)C(=O)C(C#N)=C[C@]4(C)[C@H]3CC[C@]12C | –
> 20 µM | C[C@H](C(=O)O)[C@H]1CC[C@H]2[C@@H]3C(=O)C=C4C(C)(C)C(=O)C=C[C@]4(C)[C@H]3CC[C@]12C | –
10.8 µM | CCOc1ccc(NC(=O)[C@@H](C)[C@H]2CC[C@H]3[C@@H]4C(=O)C=C5C(C)(C)C(=O)C(C#N)=C[C@]5(C)[C@H]4CC[C@]23C)cc1 | –
18.8 µM | COc1ccc(NC(=O)[C@@H](C)[C@H]2CC[C@H]3[C@@H]4C(=O)C=C5C(C)(C)C(=O)C(C#N)=C[C@]5(C)[C@H]4CC[C@]23C)cc1OC | –
> 20 µM | C[C@H](C(=O)Nc1ccc(C(F)(F)F)cc1)[C@H]1CC[C@H]2[C@@H]3C(=O)C=C4C(C)(C)C(=O)C(C#N)=C[C@]4(C)[C@H]3CC[C@]12C | –
> 20 µM | C[C@H](C(=O)Oc1ccc(C(F)(F)F)cc1)[C@H]1CC[C@H]2[C@@H]3C(=O)C=C4C(C)(C)C(=O)C(C#N)=C[C@]4(C)[C@H]3CC[C@]12C | –
10.4 µM | COc1ccccc1NC(=O)[C@@H](C)[C@H]1CC[C@H]2[C@@H]3C(=O)C=C4C(C)(C)C(=O)C(C#N)=C[C@]4(C)[C@H]3CC[C@]12C | –
> 20 µM | C[C@H](C(=O)OC1CCCC1)[C@H]1CC[C@H]2[C@@H]3C(=O)C=C4C(C)(C)C(=O)C(C#N)=C[C@]4(C)[C@H]3CC[C@]12C | –

IC50 [1] | SMILES | further results
> 20 µM | CCOC(=O)[C@@H](C)[C@H]1CC[C@H]2[C@@H]3C(=O)C=C4C(C)(C)C(=O)C(C#N)=C[C@]4(C)[C@H]3CC[C@]12C | –
7.06 µM | COc1cc(NC(=O)[C@@H](C)[C@H]2CC[C@H]3[C@@H]4C(=O)C=C5C(C)(C)C(=O)C(C#N)=C[C@]5(C)[C@H]4CC[C@]23C)cc(OC)c1 | –
14.2 µM | C[C@H](C(=O)Nc1nccs1)[C@H]1CC[C@H]2[C@@H]3C(=O)C=C4C(C)(C)C(=O)C(C#N)=C[C@]4(C)[C@H]3CC[C@]12C | –
12.1 µM | C[C@H](C(=O)Nc1ccc2ncsc2c1)[C@H]1CC[C@H]2[C@@H]3C(=O)C=C4C(C)(C)C(=O)C(C#N)=C[C@]4(C)[C@H]3CC[C@]12C | –
16.6 µM | CCCCOc1ccc(NC(=O)[C@@H](C)[C@H]2CC[C@H]3[C@@H]4C(=O)C=C5C(C)(C)C(=O)C(C#N)=C[C@]5(C)[C@H]4CC[C@]23C)cc1 | –
5.43 µM | COc1cccc(NC(=O)[C@@H](C)[C@H]2CC[C@H]3[C@@H]4C(=O)C=C5C(C)(C)C(=O)C(C#N)=C[C@]5(C)[C@H]4CC[C@]23C)c1 | –
3.79 µM | C[C@H](C(=O)n1cccn1)[C@H]1CC[C@H]2[C@@H]3C(=O)C=C4C(C)(C)C(=O)C(C#N)=C[C@]4(C)[C@H]3CC[C@]12C | IC50 [2]: 0.06 µM; Ratio IC50 [3]: 5.7; IC50 [4]: 0.34 µM; IC50 [5]: 0.24 µM; IC50 at 72 h [6]: > 100 µM; IC50 at 72 h [7]: > 100 µM; Ratio IC50 [8]: 1.4
> 20 µM | C#CCNC(=O)[C@@H](C)[C@H]1CC[C@H]2[C@@H]3C(=O)C=C4C(C)(C)C(=O)C(C#N)=C[C@]4(C)[C@H]3CC[C@]12C | –
> 20 µM | C[C@H](C(=O)O)[C@H]1CC[C@H]2[C@@H]3CC=C4C(C)(C)C(=O)C(C#N)=C[C@]4(C)[C@H]3CC[C@]12C | –
17.9 µM | COc1ccc(NC(=O)CC[C@@H](C)[C@H]2CC[C@H]3[C@@H]4C(=O)C=C5C(C)(C)C(=O)C(C#N)=C[C@]5(C)[C@H]4CC[C@]23C)cc1 | –
5.62 µM | C[C@H](C(=O)Nc1ccc2nccnc2c1)[C@H]1CC[C@H]2[C@@H]3C(=O)C=C4C(C)(C)C(=O)C(C#N)=C[C@]4(C)[C@H]3CC[C@]12C | –
> 20 µM | COc1ccc(NC(=O)CCC[C@@H](C)[C@H]2CC[C@H]3[C@@H]4C(=O)C=C5C(C)(C)C(=O)C(C#N)=C[C@]5(C)[C@H]4CC[C@]23C)cc1 | –
4.86 µM | C[C@H](C(=O)Nc1ccccc1)[C@H]1CC[C@H]2[C@@H]3C(=O)C=C4C(C)(C)C(=O)C(C#N)=C[C@]4(C)[C@H]3CC[C@]12C | IC50 [2]: 0.7 µM; Ratio IC50 [3]: 1; IC50 [4]: 0.72 µM; IC50 [5]: 0.11 µM; IC50 at 72 h [6]: > 100 µM; IC50 at 72 h [7]: > 100 µM; Ratio IC50 [8]: 6.5
12.8 µM | CCc1ccc(NC(=O)[C@@H](C)[C@H]2CC[C@H]3[C@@H]4C(=O)C=C5C(C)(C)C(=O)C(C#N)=C[C@]5(C)[C@H]4CC[C@]23C)cc1 | –
16.4 µM | C[C@H](C(=O)NC1CCCCC1)[C@H]1CC[C@H]2[C@@H]3C(=O)C=C4C(C)(C)C(=O)C(C#N)=C[C@]4(C)[C@H]3CC[C@]12C | –
> 20 µM | CCCNC(=O)[C@@H](C)[C@H]1CC[C@H]2[C@@H]3C(=O)C=C4C(C)(C)C(=O)C(C#N)=C[C@]4(C)[C@H]3CC[C@]12C | –
9.37 µM | COc1ccc(OC(=O)[C@@H](C)[C@H]2CC[C@H]3[C@@H]4C(=O)C=C5C(C)(C)C(=O)C(C#N)=C[C@]5(C)[C@H]4CC[C@]23C)cc1 | –
> 20 µM | CCCCc1ccc(NC(=O)[C@@H](C)[C@H]2CC[C@H]3[C@@H]4C(=O)C=C5C(C)(C)C(=O)C(C#N)=C[C@]5(C)[C@H]4CC[C@]23C)cc1 | –
> 20 µM | COC(=O)[C@@H](C)[C@H]1CC[C@H]2[C@@H]3C(=O)C=C4C(C)(C)C(=O)C(C#N)=C[C@]4(C)[C@H]3CC[C@]12C | –
> 20 µM | C[C@H](C(=O)NC1CCCC1)[C@H]1CC[C@H]2[C@@H]3C(=O)C=C4C(C)(C)C(=O)C(C#N)=C[C@]4(C)[C@H]3CC[C@]12C | –
> 20 µM | C[C@H](C(=O)OC1CCCCC1)[C@H]1CC[C@H]2[C@@H]3C(=O)C=C4C(C)(C)C(=O)C(C#N)=C[C@]4(C)[C@H]3CC[C@]12C | –
> 20 µM | CCCOC(=O)[C@@H](C)[C@H]1CC[C@H]2[C@@H]3C(=O)C=C4C(C)(C)C(=O)C(C#N)=C[C@]4(C)[C@H]3CC[C@]12C | –
6.95 µM | COc1cc(NC(=O)[C@@H](C)[C@H]2CC[C@H]3[C@@H]4C(=O)C=C5C(C)(C)C(=O)C(C#N)=C[C@]5(C)[C@H]4CC[C@]23C)cc(OC)c1OC | –
